Data from PubChem BioAssay AID2060895 (Molecular Pharmacology Branch, DTP, NCI, 2025).

Tested on: PDC 899932-113-R3-J6 complex spheroid viability
Assay: Anticancer human tumor 899932-113-R3-J6-PDC patient-derived melanoma cell line growth inhibition [RAS]
Conditions: for IC50: curve of first compound; for viability, T/C: stronger effect = lower value
Procedure, shortened: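 Agents were tested in combination matrices in half-log decrements from a top concentration at or near clinical Cmax (10 microM if undetermined). Targets were multi-cell spheroids of tumour lines plus HUVEC and MSC stromal cells.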

[1] = second compound 0.000949 µM, first compound 0.0316 µM
[2] = second compound 0.000949 µM, first compound 0.1 µM
[3] = second compound 0.000949 µM, first compound 0.316 µM
[4] = second compound 0.000949 µM, first compound 1 µM
[5] = second compound 0.003 µM, first compound 0.0316 µM
[6] = second compound 0.003 µM, first compound 0.1 µM
[7] = second compound 0.003 µM, first compound 0.316 µM
[8] = second compound 0.003 µM, first compound 1 µM
[9] = second compound 0.00949 µM, first compound 0.0316 µM
[10] = second compound 0.00949 µM, first compound 0.1 µM
[11] = second compound 0.00949 µM, first compound 0.316 µM
[12] = second compound 0.00949 µM, first compound 1 µM
[13] = second compound 0.03 µM, first compound 0.0316 µM
[14] = second compound 0.03 µM, first compound 0.1 µM
[15] = second compound 0.03 µM, first compound 0.316 µM
[16] = second compound 0.03 µM, first compound 1 µM
[17] = second compound 0.0949 µM, first compound 0.0316 µM
[18] = second compound 0.0949 µM, first compound 0.1 µM
[19] = second compound 0.0949 µM, first compound 0.316 µM
[20] = second compound 0.0949 µM, first compound 1 µM
[21] = second compound 0.3 µM, first compound 0.0316 µM
[22] = second compound 0.3 µM, first compound 0.1 µM
[23] = second compound 0.3 µM, first compound 0.316 µM
[24] = second compound 0.3 µM, first compound 1 µM
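Wherever viability, T/C is given: spheroids exposed to agents for seven days before readout; 100% = DMSO vehicle control wells.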

CC(=O)OC12COC1CC(O)C1(C)C(=O)C(O)C3=C(C)C(OC(=O)C(O)C(NC(=O)OC(C)(C)C)c4ccccc4)CC(O)(C(OC(=O)c4ccccc4)C21)C3(C)C (stereo unspecified) + CCn1c(-c2cc(N3CCN(C)CC3)cnc2C(C)OC)c2c3cc(ccc31)-c1csc(n1)CC(NC(=O)C1CC1C)C(=O)N1CCCC(N1)C(=O)OCC(C)(C)C2
IC50 (second compound 0.000949 µM): < 31.6 nM
IC50 (second compound 0.003 µM): < 31.6 nM
IC50 (second compound 0.00949 µM): < 31.6 nM
IC50 (second compound 0.03 µM): < 31.6 nM
IC50 (second compound 0.0949 µM): < 31.6 nM
IC50 (second compound 0.3 µM): < 31.6 nM
viability, T/C [1]: 18.6%
viability, T/C [2]: 18.4%
viability, T/C [3]: 26.5%
viability, T/C [4]: 36.3%
viability, T/C (second compound 0.000949 µM, first compound 3.16 µM): 45.5%
viability, T/C (second compound 0.000949 µM, first compound 10 µM): 47.2%
viability, T/C [5]: 8.34%
viability, T/C [6]: 10.3%
viability, T/C [7]: 12.4%
viability, T/C [8]: 14.1%
viability, T/C (second compound 0.003 µM, first compound 3.16 µM): 18.3%
viability, T/C (second compound 0.003 µM, first compound 10 µM): 21.1%
viability, T/C [9]: 3.98%
viability, T/C [10]: 3.52%
viability, T/C [11]: 3.63%
viability, T/C [12]: 3.09%
viability, T/C (second compound 0.00949 µM, first compound 3.16 µM): 3.96%
viability, T/C (second compound 0.00949 µM, first compound 10 µM): 4.11%
viability, T/C [13]: 2.05%
viability, T/C [14]: 1.55%
viability, T/C [15]: 1.79%
viability, T/C [16]: 1.78%
viability, T/C (second compound 0.03 µM, first compound 3.16 µM): 1.72%
viability, T/C (second compound 0.03 µM, first compound 10 µM): 1.3%
viability, T/C [17]: 1.14%
viability, T/C [18]: 1.02%
viability, T/C [19]: 1.61%
viability, T/C [20]: 0.79%
viability, T/C (second compound 0.0949 µM, first compound 3.16 µM): 0.68%
viability, T/C (second compound 0.0949 µM, first compound 10 µM): 0.72%
viability, T/C [21]: 1.95%
viability, T/C [22]: 0.96%
viability, T/C [23]: 1.47%
viability, T/C [24]: 0.52%
viability, T/C (second compound 0.3 µM, first compound 3.16 µM): 0.57%
viability, T/C (second compound 0.3 µM, first compound 10 µM): 0.59%

CCc1c2c(nc3ccc(O)cc13)-c1cc3c(c(=O)n1C2)COC(=O)[C@]3(O)CC + CCn1c(-c2cc(N3CCN(C)CC3)cnc2C(C)OC)c2c3cc(ccc31)-c1csc(n1)CC(NC(=O)C1CC1C)C(=O)N1CCCC(N1)C(=O)OCC(C)(C)C2
IC50 (second compound 0.000949 µM): 2 nM
IC50 (second compound 0.003 µM): < 0.949 nM
IC50 (second compound 0.00949 µM): < 0.949 nM
IC50 (second compound 0.03 µM): < 0.949 nM
IC50 (second compound 0.0949 µM): < 0.949 nM
IC50 (second compound 0.3 µM): < 0.949 nM
viability, T/C (second compound 0.000949 µM, first compound 0.000949 µM): 63.8%
viability, T/C (second compound 0.000949 µM, first compound 0.003 µM): 39.8%
viability, T/C (second compound 0.000949 µM, first compound 0.00949 µM): 36%
viability, T/C (second compound 0.000949 µM, first compound 0.03 µM): 26.9%
viability, T/C (second compound 0.000949 µM, first compound 0.0949 µM): 22.6%
viability, T/C (second compound 0.000949 µM, first compound 0.3 µM): 23%
viability, T/C (second compound 0.003 µM, first compound 0.000949 µM): 31.1%
viability, T/C (second compound 0.003 µM, first compound 0.003 µM): 24.2%
viability, T/C (second compound 0.003 µM, first compound 0.00949 µM): 16.4%
viability, T/C (second compound 0.003 µM, first compound 0.03 µM): 16.1%
viability, T/C (second compound 0.003 µM, first compound 0.0949 µM): 13.4%
viability, T/C (second compound 0.003 µM, first compound 0.3 µM): 14%
viability, T/C (second compound 0.00949 µM, first compound 0.000949 µM): 3.79%
viability, T/C (second compound 0.00949 µM, first compound 0.003 µM): 3.32%
viability, T/C (second compound 0.00949 µM, first compound 0.00949 µM): 3.11%
viability, T/C (second compound 0.00949 µM, first compound 0.03 µM): 3.28%
viability, T/C (second compound 0.00949 µM, first compound 0.0949 µM): 3.1%
viability, T/C (second compound 0.00949 µM, first compound 0.3 µM): 3.34%
viability, T/C (second compound 0.03 µM, first compound 0.000949 µM): 2.49%
viability, T/C (second compound 0.03 µM, first compound 0.003 µM): 2.47%
viability, T/C (second compound 0.03 µM, first compound 0.00949 µM): 2.92%
viability, T/C (second compound 0.03 µM, first compound 0.03 µM): 2.25%
viability, T/C (second compound 0.03 µM, first compound 0.0949 µM): 2.41%
viability, T/C (second compound 0.03 µM, first compound 0.3 µM): 2.31%
viability, T/C (second compound 0.0949 µM, first compound 0.000949 µM): 2.12%
viability, T/C (second compound 0.0949 µM, first compound 0.003 µM): 2.87%
viability, T/C (second compound 0.0949 µM, first compound 0.00949 µM): 2.12%
viability, T/C (second compound 0.0949 µM, first compound 0.03 µM): 2.27%
viability, T/C (second compound 0.0949 µM, first compound 0.0949 µM): 1.31%
viability, T/C (second compound 0.0949 µM, first compound 0.3 µM): 1.12%
viability, T/C (second compound 0.3 µM, first compound 0.000949 µM): 1.75%
viability, T/C (second compound 0.3 µM, first compound 0.003 µM): 2.65%
viability, T/C (second compound 0.3 µM, first compound 0.00949 µM): 2.22%
viability, T/C (second compound 0.3 µM, first compound 0.03 µM): 1.86%
viability, T/C (second compound 0.3 µM, first compound 0.0949 µM): 1.47%
viability, T/C (second compound 0.3 µM, first compound 0.3 µM): 1.58%

Nc1ccn(C2OC(CO)C(O)C2(F)F)c(=O)n1 (stereo unspecified) + CCn1c(-c2cc(N3CCN(C)CC3)cnc2C(C)OC)c2c3cc(ccc31)-c1csc(n1)CC(NC(=O)C1CC1C)C(=O)N1CCCC(N1)C(=O)OCC(C)(C)C2
IC50 (second compound 0.000949 µM): 5.85 nM
IC50 (second compound 0.003 µM): < 3.16 nM
IC50 (second compound 0.00949 µM): < 3.16 nM
IC50 (second compound 0.03 µM): < 3.16 nM
IC50 (second compound 0.0949 µM): < 3.16 nM
IC50 (second compound 0.3 µM): < 3.16 nM
viability, T/C (second compound 0.000949 µM, first compound 0.00316 µM): 62.9%
viability, T/C (second compound 0.000949 µM, first compound 0.01 µM): 38.6%
viability, T/C [1]: 19.2%
viability, T/C [2]: 10.9%
viability, T/C [3]: 10.9%
viability, T/C [4]: 12.7%
viability, T/C (second compound 0.003 µM, first compound 0.00316 µM): 34.1%
viability, T/C (second compound 0.003 µM, first compound 0.01 µM): 22.6%
viability, T/C [5]: 9.17%
viability, T/C [6]: 6.99%
viability, T/C [7]: 7.8%
viability, T/C [8]: 7.27%
viability, T/C (second compound 0.00949 µM, first compound 0.00316 µM): 3.07%
viability, T/C (second compound 0.00949 µM, first compound 0.01 µM): 3.15%
viability, T/C [9]: 3.74%
viability, T/C [10]: 3.5%
viability, T/C [11]: 3.59%
viability, T/C [12]: 3.95%
viability, T/C (second compound 0.03 µM, first compound 0.00316 µM): 2.89%
viability, T/C (second compound 0.03 µM, first compound 0.01 µM): 2.31%
viability, T/C [13]: 3.09%
viability, T/C [14]: 3.08%
viability, T/C [15]: 2.1%
viability, T/C [16]: 2.81%
viability, T/C (second compound 0.0949 µM, first compound 0.00316 µM): 2.38%
viability, T/C (second compound 0.0949 µM, first compound 0.01 µM): 1.69%
viability, T/C [17]: 2.42%
viability, T/C [18]: 2.17%
viability, T/C [19]: 1.85%
viability, T/C [20]: 2.61%
viability, T/C (second compound 0.3 µM, first compound 0.00316 µM): 1.86%
viability, T/C (second compound 0.3 µM, first compound 0.01 µM): 2%
viability, T/C [21]: 2.22%
viability, T/C [22]: 2.4%
viability, T/C [23]: 2.26%
viability, T/C [24]: 1.79%
